Measured values reported in US20260125736A1, “FURIN SENSORS AND APPLICATIONS THEREOF” (FLAREON BIOTECH GMBH, priority 2023, published 2026).
Primed or numbered codes have the meaning given here. Ends that are not written are not given here. * marks the point of attachment. Dabcyl′ = 4-((4-(dimethylamino)phenyl)azo)benzoic acid, CN(C)c1ccc(/N=N/c2ccc(C(=O)*)cc2)cc1; EDANS = O=S(=O)(O)c1cccc2c(NCCN*)cccc12

Columns and labels:
[1] = target: T1, furin (Homo sapiens, UniProt P09958); assay: Peptide cleavage by furin, analysed by HPLC (AUC of main peak vs negative control without furin); settings: cleavage of PSL via furin within 15 min; 0.1 mM peptide, 1 U furin, 37° C., n=3
Procedure: Lyophilized peptides were solubilized in furin buffer (100 mM HEPES pH 7.5, 5 mM CaCl2) to 1 mM stock solutions. Cleavage was performed at 37° C. under rigorous shaking in 30 μL furin buffer containing 0.1 mM of the respective peptide and 1 U furin per reaction. The reaction was stopped via addition of 5 mM EDTA final concentration. Experiments were performed n=3.
Analytical HPLC was carried out via an Agilent 1260 infinity II HPLC (Agilent Technologies Inc., Waldbronn, Germany) using a Zorbax 300SB-CN 5 μm analytical 4.6×150 mm LC column (Agilent Technologies Inc., Waldbronn, Germany) The device was equipped with a diode array detector (G7115A, Agilent), a fluorescence detector (G7121A, Agilent), an automatic vial sampler (G7129C, Agilent), flexible Pump (G7104C, Agilent), and multicolumn oven (G7116A, Agilent). Mobile phase A was 0.1% TFA in Millipore water. Mobile phase B was ACN with 0.1% TFA, flow was set to 1 ml/min, injection volume was 15 μl, and the wavelength of the detector was set to A=214 nm. […]
Cleavage percent was analyzed by comparing the area under the curve (AUC) of the main peak from the respective peptide incubated with furin, compared to a negative control without furin.

[2] = system: HNSCC tissue; format: cell-based, human
[3] = system: HNSCC tumor tissue; assay: FRET-based sensor tissue incubation (fluorescence, ex 340 nm / em 490 nm); format: cell-based, human; settings: 10 μM sensor, incubation over 60 min, 37° C., cleavage determined against blank (intact sensor)
Procedure: All included patients were diagnosed with primary oral squamous cell carcinoma (OSCC). Patients suffering from other tumor entities as well as inoperable cases were excluded from this study.
After performing preoperative tumor staging and incisional biopsy to confirm the diagnosis, stage-appropriate tumor resection, lymph-node dissection, and reconstruction took place. Tumor resection was performed in the usual way, which included using separate margins for frozen section analysis in order to confirm in sano resection. […]
Tissues were stored on ice in sterile filtered in cell culture medium (RPMI-1640, Dutch modification, 10% FCS, 1% Penicillin/Streptomycin, Nystatin). […] After the 24h incubation, one of the tumor tissues was analyzed using FDA. […] The tumor tissue was incubated for 5 min and analyzed via Axio Observer.Z1 microscope equipped with an A-Plan 10×/0.25 Ph1 objective (Zeiss), 38 HE Green Fluorescent Protein (λex=450-490 nm, λem=500-550 nm) and a mercury vapor short-arc lamp.
Tissues were prepared as described before. […] The tissues were incubated at 37° C. and analyzed at t=0, 5, 10, 15, 20, 25, 30, 40, 50 and 60 min via an Infinite M plex (Tecan trading AG, Mannedorf, Switzerland) with an excitation wavelength of λ=340 nm and an emission wavelength of λ=490 nm. […]

[4] = target: T1, furin; assay: Cleavage of FRET sensors by furin / illumination of C1S; format: biochemical; settings: C1S 10 μM incubated with furin for 60 min, illuminated at 350 nm; compared with C1S without furin
Procedure: Negative controls were performed without furin. Experiments were performed n=3. The samples were analyzed using an Infinite M plex (Tecan trading AG, Mannedorf, Switzerland) with an excitation wavelength of λ=340 nm and an emission wavelength of A =490 nm.
Sensor C1S was incubated as described before under cleavage of FRET sensors with and without furin for 60 min and illuminated via Universal UV Lampe (CAMAG, Germany) with λ=350 nm.

T1 sequence (P09958 108-794): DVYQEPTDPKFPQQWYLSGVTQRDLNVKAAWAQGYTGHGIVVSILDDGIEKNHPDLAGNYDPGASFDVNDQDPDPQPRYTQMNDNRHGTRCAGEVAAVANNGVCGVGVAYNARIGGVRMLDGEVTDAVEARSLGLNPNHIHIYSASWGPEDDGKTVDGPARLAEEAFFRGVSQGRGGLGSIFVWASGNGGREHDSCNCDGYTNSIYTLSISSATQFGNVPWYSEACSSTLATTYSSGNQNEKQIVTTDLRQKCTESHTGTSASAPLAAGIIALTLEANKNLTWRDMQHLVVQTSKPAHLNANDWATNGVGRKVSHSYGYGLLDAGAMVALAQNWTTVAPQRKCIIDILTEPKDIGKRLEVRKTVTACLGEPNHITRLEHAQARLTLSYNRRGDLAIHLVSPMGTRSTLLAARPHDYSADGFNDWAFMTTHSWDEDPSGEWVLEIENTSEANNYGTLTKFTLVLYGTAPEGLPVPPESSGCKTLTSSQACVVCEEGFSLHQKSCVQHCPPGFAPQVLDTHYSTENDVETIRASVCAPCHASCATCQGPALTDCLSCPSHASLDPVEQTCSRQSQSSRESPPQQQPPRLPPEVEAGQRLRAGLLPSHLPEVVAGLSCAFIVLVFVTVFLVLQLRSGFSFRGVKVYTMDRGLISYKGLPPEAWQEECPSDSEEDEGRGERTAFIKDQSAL

| Substance | Cleavage [1] [%] | time after which a fluorescent signal difference between HNSCC and healthy tissue is visually recognizable [2] [min] | visual difference between healthy and HNSCC tissues in the first 30 minutes [2] | fold increase of sensor cleavage of the tumor tissue compared to healthy tissue [3] [fold] | fluorescence observed visually after incubation with furin [4] |
| --- | --- | --- | --- | --- | --- |
| RTAMSAGA [Z5] | 26.16 | – | – | – | – |
| Ac-EG-K(Dabcyl)-RTAMTAGA-E(Edans)-GE (Ac-EGK(Dabcyl′)RTAMTAGAE(EDANS)GE) [Z3S] | – | 35 | no difference could be observed | – | – |
| Ac-K(Dabcyl)-RRARSVAS-E(Edans) (Ac-K(Dabcyl′)RRARSVASE(EDANS)) [C1S] | – | 5 | – | > 2 | distinct cyan fluorescence |
